Experimental data from PMC5625157, “Lack of clinically important PK interaction between coformulated ledipasvir/sofosbuvir and rilpivirine/emtricitabine/tenofovir alafenamide” (Pharmacology Research & Perspectives, 2017).
Read-outs that look alike come from different tables or passages of the source. Blank lines part the entries; values can stand above or below the molecule they belong to.

Columns and labels:
[1] = Phase 1 crossover drug-drug interaction study, plasma pharmacokinetics by HPLC-MS/MS, non-compartmental analysis; settings: for C tau / AUC / Cmax / AUC(0-t): mean (%CV); for AUC / Cmax / half-life / AUC(0-t) / Tmax: human; for AUC: AUCtau, healthy subjects, fed, multiple dose; for Cmax: C max; for effect of coadministered LDV/SOF on exposure (C max, AUC tau): LDV/SOF + R/F/TAF vs R/F/TAF; for effect of coadministered LDV/SOF on exposure (C max, AUC tau) / effect of coadministered R/F/TAF on exposure (C max, AUC tau): result in words; for AUC(0-t): AUClast; for Tmax: T max; for effect of coadministered R/F/TAF on exposure (C max, AUC tau): LDV/SOF + R/F/TAF vs LDV/SOF;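 as to all read-outs here: blood sampled at steady state on final dosing day, predose through 24 h after dose, study drug given shortly after standardized breakfast, with isotopically labeled internal standards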
[2] = design: method as in German et al. 2014; settings: ref German et al. 2014, cited from earlier work
[3] = cited from earlier work
[4] = in vivo; for C max / T max / t 1/2: human
clinical = settings: human, in vivo; for AUC: AUCtau, healthy subjects, fed, multiple dose; for AUC / Cmax: plasma, mean (%CV); for Cmax: C max; for half-life: median (first quartile, third quartile)
[5] = Reference: R/F/TAF (N = 42), plasma
[6] = Test: LDV/SOF + R/F/TAF (N = 42), plasma
[7] = plasma, oral, Reference: R/F/TAF (N = 42), plasma
[8] = plasma, oral, Test: LDV/SOF + R/F/TAF (N = 42), plasma
[9] = plasma, oral, t 1/2, Reference: R/F/TAF (N = 42), median (first quartile, third quartile)
[10] = plasma, oral, t 1/2, Test: LDV/SOF + R/F/TAF (N = 42), median (first quartile, third quartile)
[11] = test LDV/SOF + R/F/TAF vs reference R/F/TAF
[12] = in vivo, Reference: R/F/TAF (N = 42), plasma
[13] = in vivo, Test: LDV/SOF + R/F/TAF (N = 42), plasma
[14] = Reference: LDV/SOF (N = 41), median (first quartile, third quartile)
[15] = test LDV/SOF + R/F/TAF vs reference LDV/SOF
[16] = Test: LDV/SOF + R/F/TAF (N = 42)
[17] = t 1/2, Reference: LDV/SOF (N = 41)
[18] = t 1/2, Test: LDV/SOF + R/F/TAF (N = 42)

Compound: CC(C)OC(=O)[C@H](C)N[P@](=O)(CO[C@H](C)Cn1cnc2c(N)ncnc21)Oc1ccccc1 [TAF, tenofovir alafenamide]
effect of coadministered LDV/SOF on exposure (C max, AUC tau) [1]: no effect | t 1/2 ([1]; Reference: R/F/TAF (N = 42), median (first quartile, third quartile)): 0.5 (0.4, 0.6) h | AUC(0-t) [1, 12]: 277 ng·h/mL | AUC(0-t) [1, 13]: 362 ng·h/mL | Cmax [1, 12]: 200 ng/mL | Cmax [1, 13]: 205 ng/mL | Tmax ([1]; in vivo, Reference: R/F/TAF (N = 42), median (first quartile, third quartile)): 1.5 h | Tmax ([1]; in vivo, Test: LDV/SOF + R/F/TAF (N = 42), median (first quartile, third quartile)): 1.8 h | GLSM ratio (test/reference) of AUClast [1, 11]: 132% | GLSM ratio (test/reference) of C max [1, 11]: 103% | lower plasma tenofovir exposure compared to TDF 300 mg ([3]; TAF 25 mg vs TDF 300 mg, reference not given): ~ 90% | less plasma TFV exposures than TDF ([3]; TAF vs TDF, ref Sax et al. 2015, Zack et al. 2016, Gilead Sciences Inc, 2017b): 80–90%

Compound: COC(=O)N[C@H](C(=O)N1CC2(CC2)C[C@H]1c1ncc(-c2ccc3c(c2)C(F)(F)c2cc(-c4ccc5nc([C@@H]6[C@H]7CC[C@H](C7)N6C(=O)[C@@H](NC(=O)OC)C(C)C)[nH]c5c4)ccc2-3)[nH]1)C(C)C [LDV, ledipasvir]
effect of coadministered R/F/TAF on exposure (C max, AUC tau) [1]: did not noticeably increase | effect of coadministered R/F/TAF on exposure (C max, AUC tau) ([1]; listed as ledipasvir): no relevant effect | T max [1, 14]: 4.5 (4.5, 5.0) h | C tau ([1]; Reference: LDV/SOF (N = 41), plasma): 420 (46) ng/mL | C tau [1, 6]: 434 (47) ng/mL | GLSM ratio (test/reference) of AUCtau [1, 15]: 102% | GLSM ratio (test/reference) of C max [1, 15]: 101% | GLSM ratio (test/reference) of C tau [1, 15]: 102% | AUC (clinical; Reference: LDV/SOF (N = 41)): 11600 ng·h/mL | AUC (clinical; [16]): 11900 ng·h/mL | Cmax (clinical; Reference: LDV/SOF (N = 41)): 647 ng/mL | Cmax (clinical; [16]): 658 ng/mL | half-life (clinical; [17]): 32.6 h | half-life (clinical; [18]): 31.3 h

Compound: CC(C)OC(=O)[C@H](C)N[P@](=O)(OC[C@H]1O[C@@H](n2ccc(=O)[nH]c2=O)[C@](C)(F)[C@@H]1O)Oc1ccccc1 [SOF, sofosbuvir]
effect of coadministered R/F/TAF on exposure (C max, AUC tau) [1]: did not noticeably increase | effect of coadministered R/F/TAF on exposure (C max, AUC tau) ([1]; listed as sofosbuvir): no relevant effect | T max [1, 14]: 2.0 (1.5, 3.0) h | GLSM ratio (test/reference) of AUCtau [1, 15]: 105% | GLSM ratio (test/reference) of C max [1, 15]: 96% | AUC (clinical; Reference: LDV/SOF (N = 41)): 2910 ng·h/mL | AUC (clinical; [16]): 3070 ng·h/mL | Cmax (clinical; Reference: LDV/SOF (N = 41)): 1470 ng/mL | Cmax (clinical; [16]): 1390 ng/mL | half-life (clinical; [17]): 0.5 h | half-life (clinical; [18]): 0.5 h

Compound: Cc1cc(/C=C/C#N)cc(C)c1Nc1ccnc(Nc2ccc(C#N)cc2)n1 [RPV, rilpivirine]
effect of coadministered LDV/SOF on exposure (C max, AUC tau) [1]: no effect | C tau [1, 5]: 109 (32) ng/mL | T max ([1]; Test: LDV/SOF + R/F/TAF (N = 42), median (first quartile, third quartile)): 4.0 (4.0, 5.0) h | C tau [1, 6]: 100 (26) ng/mL | AUC [1, 7]: 3040 ng·h/mL | AUC [1, 8]: 2860 ng·h/mL | Cmax [1, 7]: 203 ng/mL | Cmax [1, 8]: 197 ng/mL | half-life [1, 9]: 32.8 h | half-life [1, 10]: 30.4 h | GLSM ratio (test/reference) of AUCtau [1, 11]: 95% | GLSM ratio (test/reference) of C max [1, 11]: 97% | GLSM ratio (test/reference) of C tau [1, 11]: 93% | Tmax (clinical): 5 h

Now from value to molecule, other results behind:

C tau [1, 5]: 9 (25) ng/mL | C tau [1, 6]: 17 (22) ng/mL | AUC [1, 7]: 268 ng·h/mL | AUC [1, 8]: 467 ng·h/mL | Cmax [1, 7]: 16 ng/mL | Cmax [1, 8]: 25 ng/mL | half-life [1, 9]: 32 h | half-life [1, 10]: 44.5 h | GLSM ratio (test/reference) of AUCtau [1, 11]: 175% | GLSM ratio (test/reference) of C max [1, 11]: 162% | GLSM ratio (test/reference) of C tau [1, 11]: 185%
Compound: C[C@H](Cn1cnc2c(N)ncnc21)OCP(=O)(O)O [TFV, tenofovir]
increase in TFV exposure ([2]; R/F/TDF coadministered with LDV/SOF compared to R/F/TDF alone): 40% | TFV exposure ([2]; R/F/TDF coadministered with LDV/SOF): 4,780 ng·h/mL

C max [4]: 510 (20) ng/mL | T max [4]: 3.0 (2.0, 4.0) h | t 1/2 [4]: 2.2 (2.0, 2.5) h
Compound: C[C@H](NP(=O)(O)OC[C@H]1O[C@@H](n2ccc(=O)[nH]c2=O)[C@](C)(F)[C@@H]1O)C(=O)O [GS‐566500]

effect of coadministered LDV/SOF on exposure (C max, AUC tau) [1]: no effect | C tau [1, 5]: 88 (28) ng/mL | C tau [1, 6]: 89 (25) ng/mL | AUC [1, 7]: 10800 ng·h/mL | AUC [1, 8]: 10800 ng·h/mL | Cmax [1, 7]: 1710 ng/mL | Cmax [1, 8]: 1650 ng/mL | Tmax ([1]; plasma, oral, Reference: R/F/TAF (N = 42), median (first quartile, third quartile)): 2.5 h | Tmax ([1]; plasma, oral, Test: LDV/SOF + R/F/TAF (N = 42), median (first quartile, third quartile)): 3 h | half-life [1, 9]: 6.5 h | half-life [1, 10]: 5.1 h | GLSM ratio (test/reference) of AUCtau [1, 11]: 100% | GLSM ratio (test/reference) of C max [1, 11]: 97% | GLSM ratio (test/reference) of C tau [1, 11]: 102%
Compound: Nc1nc(=O)n([C@@H]2CS[C@H](CO)O2)cc1F [FTC, emtricitabine]

C max [4]: 884 (14) ng/mL | T max [4]: 4.5 (4.0, 4.5) h | t 1/2 [4]: 16.7 (13.8, 21.9) h | C tau [4]: 340 (16) ng/mL
Compound: C[C@@]1(F)[C@H](O)[C@@H](CO)O[C@H]1n1ccc(=O)[nH]c1=O [GS‐331007]
